# Data as given in the METLIN SMRT retention time set (Domingo-Almenara et al. 2019).
# Assay: gradient 5% acetonitrile 3 min, to 50% in 2 min, to 85% in 15 min, held 3 min, 100 µL/min
# Conditions: column: Zorbax Extend-C18 2.1 x 50 mm; eluents: water / acetonitrile, 0.1% formic acid
# Procedure, shortened: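 Retention times of pure standards were taken from adduct peaks that were selected by computer and manually inspected. Over 3 months, mixtures of ~100 molecules were run by HPLC–quadrupole time-of-flight mass spectrometry in positive and negative ionization mode. The Zorbax Extend-C18 column (2.1 × 50 mm, 1.8 μm) ran at 100 μL/min in water and acetonitrile, each containing 0.1% formic acid, with 40 μL dead volume and 900 μL dwell volume.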
row,SMILES,RP-LC retention time [s]
1,O=C(c1cn2cc(Cl)ccc2n1)N1CCN(c2ccccc2Cl)CC1,946
2,CCc1noc(NC(C)=O)c1-c1ccc(C)c(S(=O)(=O)Nc2ccc(F)cc2C)c1,848
3,Cc1ccc2c(c1)N(C(=O)Cn1c(=O)n(C3CC3)c(=O)c3nscc31)CCO2,773
4,CC1=C(c2ccccc2)S(=O)(=O)N=C1N1CCCN(C(=O)c2sccc2C)CC1,721
5,Cc1nc(C(=O)Nc2ccc(F)cc2Cl)c(C)o1,1040
6,Cc1nn(C(C)C)c(C)c1-c1cc(C(=O)O)[nH]n1,617
7,CC(C)C(NC(=O)Nc1ccc2c(c1)OCO2)C(=O)N1CCc2ccccc21 (centres undefined),898
8,CCc1ccc(C(C)NC(=O)c2ccc3[nH]cc(C(=O)C(=O)N4CCCCCC4)c3c2)cc1 (centres undefined),936
9,Cc1nc(-c2cn(C(C)C)c3ncccc23)sc1C(=O)NCC(C)C,975
10,O=c1cc(CN2CCN(c3ncccn3)CC2)nc2sccn12,542
11,CN1CCN(CCNC(=O)c2ccc(NC(=O)C3=CSCCO3)cc2)CC1,754
12,COc1cccc(CNC(=O)Cn2ccc3ccc(N4CCOCC4)nc32)c1,858
13,O=c1n(Cc2cccc(F)c2)nc2c(S(=O)(=O)N3CCCC3)cccn12,1050
14,Cc1ccc(NC(=O)N2C[C@@H](F)C[C@H]2C(=O)N2CCCCC2)c(C)c1,732
15,CC1CCCN(CCCNC(=O)c2nc3nc(-c4ccco4)cc(C(F)(F)F)n3n2)C1 (centres undefined),641
16,Cc1ccccc1Nc1c(-c2cccc(Br)c2)nc2ccc(Br)cn12,1150
17,Cc1ccc(-n2c(=O)c3sccc3n(Cc3nc(-c4cccc(C)c4)no3)c2=O)cc1,1060
18,Cc1noc(C)c1CNC(=O)c1ccc2c(c1)OCO2,683
19,CCOC(=O)C1CCN([C@H]2CS(=O)(=O)C[C@@H]2S(=O)(=O)c2ccc(F)cc2)CC1,889
20,CCS(=O)(=O)N1CCC(C(=O)NCCc2csc(-c3cccs3)n2)CC1,738
21,Cc1ccc(S(=O)(=O)N2CCc3nc(-c4ccc(F)cc4)ncc3C2)cc1Cl,1230
22,Cc1cccc(NC(=O)C2CC(=O)N(c3n[nH]c4cccc(F)c34)C2)c1C (centres undefined),770
23,O=C(NCCCc1ccccc1)C1(CCO)CCN(c2ncccn2)C1 (centres undefined),651
24,Cc1cc(Cl)ccc1S(=O)(=O)N1CCCC1c1nncn1-c1ccccc1 (centres undefined),845
25,CCc1noc(NC(C)=O)c1-c1ccc(C)c(S(=O)(=O)Nc2ccccc2Cl)c1,829
26,O=C(Nc1cccc(N2CCCCC2=O)c1)c1ccc(F)c(F)c1,705

row,SMILES,RP-LC retention time [s]
1,Cc1scc2nc(C(=O)NCc3ccc(F)cc3)nc(N3CCCC3)c12,561
2,O=C(Nc1cccc(Cl)c1)c1nnc(CCCC(=O)N2CCN(c3ccccn3)CC2)s1,669
3,COc1ccccc1NC(=O)CSc1ncc(S(=O)(=O)c2ccccc2)c(N)n1,790
4,CS(=O)(=O)N1CCN(C(=O)c2ccc(-n3cccn3)nn2)CC1,601
5,CCCCOc1ccc(C(=O)N(Cc2ccc(Br)o2)C2CCS(=O)(=O)C2)cc1 (centres undefined),1090
6,CC(C)Cn1cc(S(=O)(=O)N2CCSCC2)c2cccnc21,969
7,O=C(Cc1csc2nc(-c3ccccc3)cn12)NCc1ccc(Br)cc1,815
8,CC(C)NC(=O)C1CC(=O)N(c2ccc3c(c2)CCN3C(=O)C2CC2)C1 (centres undefined),657
9,Cc1ccc(-c2cc3c(=O)n(Cc4nc(-c5ccccc5)no4)ncn3n2)c(C)c1,1200
10,Cc1ccc(Oc2nccnc2N2CCCC(C(=O)N3CCN(c4cc(C)ccc4C)CC3)C2)cc1 (centres undefined),1400
11,CS(=O)(=O)N1CCC(C(=O)Nc2ccccc2)Oc2ccc(Cl)cc21 (centres undefined),887
12,CCCn1c(-c2cccc(C(=O)NCc3ccc(SC)cc3)c2)nc2cccnc21,874
13,COC(=O)c1ccccc1S(=O)(=O)N1CCc2c(c(-c3nnc(-c4ccccc4F)o3)nn2C)C1,873
14,CC(=O)N1CCc2cc(C)c(S(=O)(=O)NC(C)C)cc21,740
15,COCc1cc(=O)n(CC(=O)Nc2ccccc2F)c(N2CCOCC2)n1,789
16,O=c1c2cc(-c3cccs3)nn2cnn1Cc1nc(-c2ccccc2Cl)no1,1040
17,COc1ccc(Cl)cc1C(=O)Nc1ccc2c(c1)Sc1ncccc1C(=O)N2C,946
18,COc1ccc2[nH]c(=O)c(CCC(=O)N3CCN(c4ccccn4)CC3)cc2c1,568
19,Cc1noc(C)c1CNC(=O)c1ccc2nc[nH]c2c1,561
20,O=C(Cc1nnc(-c2cccc(F)c2)o1)N1CCOCC1,651
21,CCCn1cc(C(=O)Nc2ccc3c(c2)OCCO3)c(=O)c2ccc(C)nc21,1070
22,COc1ccc(OC)c(NC(=O)N(C)CCc2noc(-c3ccc(Cl)cc3)n2)c1,972
23,O=C(Cc1csc(SCC(=O)c2ccccc2)n1)Nc1cccc2nsnc12,981
24,O=C(NCCCN1CCCC1)C1CN(C(=O)c2ccccc2)CC12CCCCC2 (centres undefined),611
25,O=C(Nc1ccc2c(c1)OCO2)N1CCN(c2nc3cccnc3n(Cc3ccccc3)c2=O)CC1,1010

# Further lines, results first:
row,RP-LC retention time [s],SMILES
1,916,Cc1cc2c(cc1S(=O)(=O)N1CCCC1C(=O)Nc1ccc(C(C)C)cc1)OC(C)C(=O)N2 (centres undefined)
2,968,CCSc1nnc(-c2nn(C)c3c2CN(S(=O)(=O)c2ccc(OC)c(Cl)c2)CC3)n1CC
3,699,Cc1ccc2nc(N3CCN(c4ccccc4)CC3)c(-c3noc(C)n3)cc2c1
4,807,CCN1C(=O)c2cc(C(=O)Nc3ccc(C)cc3)nn2CC1(C)C(=O)NC1CCCC1 (centres undefined)
5,773,Cc1cc(C2CCCN2C(=O)c2c(F)cccc2Cl)on1 (centres undefined)
6,578,O=C(c1cncc(Br)c1)N1CCN(C(=O)c2cc(-c3ccncc3)n[nH]2)CC1
7,555,O=C(c1cc[nH]c(=O)c1)N1C[C@@H](COCC2CC2)[C@H](c2ccncc2)C1
8,741,Cc1c(C(=O)NC2CCCC2)cnn1-c1ccc(-c2nc(C(C)C)no2)cn1
9,668,CCCOC(=O)C1=C(C)NC2=C(C(=O)C(C(=O)OC)C(C)C2)C1c1ccc(N(C)C)cc1 (centres undefined)
10,695,Cc1ccc2nc(C(=O)NCc3cc(F)cc(F)c3)cn2c1
11,834,CCOC(=O)c1nc(NCc2ccccc2Cl)c2ccccc2n1
12,1040,COC(=O)C1CCN(S(=O)(=O)c2ccc(Cl)c(-c3nnc(-c4ccccc4)o3)c2)CC1
13,903,CCOC(=O)Cc1nnc(-c2ccc(Br)cc2)o1
14,828,COc1ccc(NC(=O)C2CCCN(c3ccc(=O)n(-c4ccc(F)cc4)n3)C2)cc1 (centres undefined)
15,662,Cc1[nH]nc(-c2ccc(S(=O)(=O)N3CCN(c4ccccn4)CC3)s2)c1C
16,794,CCn1cc(S(=O)(=O)Nc2cccc(OC)c2)c2cccnc21
17,690,O=C(c1cccs1)N1CCCCC1c1nncn1CC1CC1 (centres undefined)
18,574,CCC(C)NC(=O)C1CCN(CCc2cn(C)c3ncccc23)CC1 (centres undefined)
19,638,O=C(c1ccccc1Cl)N1CCN=C1N1CCCCC1

row,RP-LC retention time [s],SMILES
1,778,Cc1ccc(NC(=O)c2nc3ccccc3[nH]c2=O)c(C)c1
2,679,COCc1noc([C@@H]2CC(F)(F)CN2C(=O)c2ocnc2C)n1
3,982,CCc1nn2c(CNS(=O)(=O)c3ccc(F)c(F)c3)c(-c3ccccc3)nc2s1
4,954,Cc1nn2c(nnc3c(=O)n(CCc4c[nH]c5ccccc45)ccc32)c1-c1ccc(F)cc1
5,703,COc1ccc(NS(=O)(=O)c2ccc(N3C(=O)CCC3=O)cc2)c(OC)c1
6,843,O=[N+]([O-])c1cnc(Sc2ccncn2)s1
7,590,Cc1ccnc(N2CCC(C(=O)N3CCN(Cc4ccc5c(c4)OCO5)CC3)CC2)n1
8,896,CC(C)CNC(=O)COc1cccc2ccccc12
9,1100,Clc1cccc(-n2cc(-c3noc(-c4ccc5c(c4)OCO5)n3)nn2)c1
10,1130,Cc1ccc(S(=O)(=O)N2CCCCC2)cc1-c1nnc(-c2ccccc2)o1
11,824,CSc1cccc(NC(=O)NC2CCN(c3ccc(F)cc3)C2=O)c1 (centres undefined)
12,681,CC(C)C(=O)NCCc1csc(C2CCN(C(=O)NC(C)(C)C)CC2)n1
13,778,CC(C)CCNC(=O)CCC(=O)N1CCCn2nc(-c3cn(C)c4ccccc34)cc21
14,631,CCC(C)N(CCNC(=O)Cn1c(=O)oc2ccccc21)Cc1ccco1 (centres undefined)
15,629,CCn1cc(-c2nc(C)c(C(=O)NCc3cccnc3)s2)c2cccnc21
16,996,CCOC(=O)c1cccc(N2C=C(C#N)S(=O)(=O)c3ccc(Cl)cc32)c1
17,911,COc1ccccc1N1CCN(c2ncc(C(=O)O)c(C(C)C)n2)CC1
18,817,CCOc1ccccc1NC(=O)N1CCC2(CC1)NC(=O)c1ccc(F)cc1N2C
19,739,COc1ccc(F)cc1S(=O)(=O)N1CC(F)(F)C[C@H]1CN1CCc2ccccc2C1
